Experimental data from BindingDB's records for doi:10.1016/j.ejmech.2014.08.060 (European Molecular Biology Laboratory, 2014).

Tests used:
[1] = biological target: Protein tyrosine phosphatase type IVA 3 (Homo sapiens, UniProt O75365); test: Inhibition of PRL3 (unknown origin) using DiFMUP as fluorogenic phosphate substrate assessed as DiFMUP dephosphorylation
[2] = biological target: T1, Protein tyrosine phosphatase type IVA 1 (Homo sapiens, UniProt Q93096); test: Inhibition of PRL1 (unknown origin) using DiFMUP as fluorogenic phosphate substrate assessed as DiFMUP dephosphorylation
T1 sequence (Q93096 whole entry): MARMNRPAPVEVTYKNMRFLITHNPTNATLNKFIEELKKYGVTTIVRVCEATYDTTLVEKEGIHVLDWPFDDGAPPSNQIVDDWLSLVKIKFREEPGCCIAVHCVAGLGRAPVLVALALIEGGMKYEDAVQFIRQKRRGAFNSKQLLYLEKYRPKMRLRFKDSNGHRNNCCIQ

[3] = biological target: T2, Protein tyrosine phosphatase type IVA 2 (Homo sapiens, UniProt Q12974); test: Inhibition of PRL2 (unknown origin) using DiFMUP as fluorogenic phosphate substrate assessed as DiFMUP dephosphorylation
T2 sequence (Q12974 whole entry): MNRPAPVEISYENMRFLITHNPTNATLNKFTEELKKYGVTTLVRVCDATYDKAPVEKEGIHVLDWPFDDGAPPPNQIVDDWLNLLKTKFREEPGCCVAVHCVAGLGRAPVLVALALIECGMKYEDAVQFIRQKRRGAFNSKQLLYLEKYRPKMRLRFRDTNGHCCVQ

Chain of Protein tyrosine phosphatase type IVA 3 (O75365 whole entry): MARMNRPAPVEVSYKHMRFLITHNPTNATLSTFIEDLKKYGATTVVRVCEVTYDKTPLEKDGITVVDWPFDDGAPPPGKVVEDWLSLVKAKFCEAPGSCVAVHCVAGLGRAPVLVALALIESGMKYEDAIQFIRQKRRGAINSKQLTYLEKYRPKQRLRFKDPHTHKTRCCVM

Row | SMILES | IC50 [1] | IC50 [2] | IC50 [3]
1 | O=C(O)c1ccc[n+]2c([O-])c(-c3ccccc3)sc12 | 102 µM | 209 µM | 188 µM
2 | O=C1CSC(=S)N1 [CHEBI:8830] | – | 35 µM | 188 µM
